Source: patent EP4700036A1, “GLYCOLIPID DERIVATIVE AS MINCLE LIGAND” (The University of Osaka, priority 2023, dated 2024)

Molecular target: T1, bovine Mincle (Bos taurus, UniProt E1BHM0)
T1 construct: expressed in transfected cells
T1 sequence (E1BHM0 1-211): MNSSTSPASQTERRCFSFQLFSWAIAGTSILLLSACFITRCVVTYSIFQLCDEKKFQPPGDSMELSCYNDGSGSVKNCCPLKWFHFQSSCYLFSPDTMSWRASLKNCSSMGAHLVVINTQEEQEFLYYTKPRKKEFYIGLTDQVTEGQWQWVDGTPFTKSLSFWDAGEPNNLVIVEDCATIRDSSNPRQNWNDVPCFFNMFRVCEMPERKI
Assay: Mincle ligand activity, NFAT-GFP reporter cells expressing bovine Mincle
Format: cell-based
Details: 96-well plate, 0.03 to 3 nmol; Fig. 1 (right)
Procedure: Similarly, using NFAT-GFP reporter cells expressing bovine Mincle, prepared according to the method described in a literature (Yamasaki, S. et al, Nat Immunol 9, 1179-88(2008)), the ligand activity of HD-276 was evaluated on a 96-well plate. The doses of the test compounds (horizontal axis) were 0.03 to 3 (nmol) from the left to right.

Mincle ligand activity (reporter activity): confirmed to have Mincle ligand activity
SMILES: CCCCCCc1ccc(O[C@@H]2O[C@@H](C)[C@H](O)[C@@H](OC)[C@H]2O[C@@H]2O[C@@H](C)[C@H](O[C@@H]3O[C@H](COC)[C@@H](O)[C@H](O)[C@H]3O)[C@@H](OC)[C@H]2OC)cc1 [HD-276]
